Measurements taken from PMC7593906, “Synthesis and HPLC-ECD Study of Cytostatic Condensed O,N-Heterocycles Obtained from 3-Aminoflavanones” (Biomolecules, 2020).

Legend:
[1] = system: WM35 melanoma cell line; test: MTT assay, viability of WM35 cells; type: cell-based, human; details: for IC50: MTT assay, cells treated daily for 3 days; for EC20 (logistic fit) / EC80 (logistic fit): WM35, MTT dose-response fit, treated daily for 3 days, SI figures; for antiproliferative activity at 50 μM concentration: WM35, 50 μM, monitored at 24 and 72 h (Figure S263)
Procedure: (§1) The number of viable cells was indirectly determined by measuring the conversion of the tetrazolium salt MTT (3-{4,5-dimethilthiasol-2-il}-2,5-diphenyltetrasolium bromide, Sigma-Aldrich) to formazan by mitochondrial dehydrogenases. Cells were plated in 96-well multi-titer plates (10,000 cells per well density) in quadruplicates and were cultured for 3 days and treated by the compounds daily. Negative control group was treated with equal amount of vehicle solvent (DMSO) and positive control group was treated with 1 µg/mL doxorubicin. Cells were then incubated with 5 mg/mL MTT for 3 h, precipitated formazan crystals were dissolved in acidic isopropanol (10% 1 M HCl in isopropanol supplemented with 10% Triton X 100), and concentration of formazan was assessed colorimetrical way measuring absorbance at 565 nm.
(§2) Logistic dose-response curves were fitted using the equation y = A2 + (A1-A2)/(1 + (x/x0)^p) where the parameters are: A1: initial value (ymin), A2: final value (ymax), x0: center (EC/IC50), and p is the calculated power. Fittings were carried out and parameters were calculated using Origin 8.6 (OriginLab Corporation, Northampton, MA, USA).

[2] = system: non-cancerous HaCaT human keratinocytes; test: MTT assay, viability of HaCaT keratinocytes; type: cell-based; design: EC20 (logistic fit) / EC80 (logistic fit): unit not given here; details: for IC50: MTT assay, cells treated daily for 3 days; for EC20 (logistic fit) / EC80 (logistic fit): MTT dose-response fit, treated daily for 3 days, SI figures
Procedure: as §1, §2

[3] = system: A2780 ovarian carcinoma cell line; test: MTT assay, viability of A2780 cells; type: cell-based, human; details: for IC50: MTT assay, cells treated daily for 3 days; for antiproliferative activity at 50 μM concentration: A2780, 50 μM, monitored at 24 and 72 h (Figure S262)
Procedure: as §1, §2

[4] = system: acute myeloid leukemia cells; design: method as in PMID 31744877; details: across 30 human cell lines; read-out: EC50, viability of acute myeloid leukemia cells; cited from earlier work
[5] = system: chemoresistant forms of prostate cancer; design: method as in PMID 23423838; details: cited from earlier work
[6] = system: A2780 ovarian carcinoma cells; test: SYTOX Green labeling, plasma membrane integrity; type: cell-based; details: A2780, 24 hrs incubation
Text: (§3) 2.13. MitoProbe^TM DilC1(5) Assay and SYTOX Green Labeling
(§4) Decrease in mitochondrial membrane potential is an early hallmark of apoptosis and the disruption of the plasma membrane integrity is characteristic for cellular necrosis. These events were investigated simultaneously using MitoProbe^TM DilC1(5) assay kit and SYTOX green (both from Molecular Probes/ThermoiFisher) staining, respectively. DilC1(5) (1,1′,3,3,3′,3′-hexamethylindodicarbo - cyanine iodide) is a fluorescent cyanine dye which penetrates cytoplasm with intact membrane and accumulates primarily in mitochondria depending on the mitochondrial membrane potential. […] SYTOX Green is a nucleic acid stain impermeant to live cells with intact plasma membrane, but it penetrates the compromised membrane of necrotic, dead cells resulting in a bright green fluorescent nuclear staining.
(§5) Cells were plated in 96-well multi-titer plates (10,000 cells per well density) in quadruplicates and were incubated for 24 h with various concentrations of rac-19g. […] Finally, the excess of the dyes was removed, cells were gently washed in PBS, and fluorescence of DilC1(5) and SYTOX Green was measured at 630/680 nm and 490/520 nm (excitation/emission), respectively, using a FlexStation 3 (Molecular Devices) multimodal microplate reader.

[7] = system: A2780 ovarian carcinoma cells; test: MitoProbe DilC1(5) assay, mitochondrial membrane potential; type: cell-based, human; details: A2780, 24 hrs incubation
Text: as §3, §4, §5

[8] = system: A2780 ovarian carcinoma cells; test: CyQUANT cell proliferation assay, total DNA content; type: cell-based, human; details: A2780, 24 hrs incubation
Procedure: 2.14. CyQUANT® Cell Proliferation Assay
CyQUANT assay assesses the cellular proliferation indirectly by directly determining the DNA content in a cell population using CyQUANT fluorescent dye. […] Therefore, it is suitable to asses DNA synthesis associated with cellular proliferation. Cells were plated in 96-well multi-titer plates (10,000 cells per well density) in quadruplicates and were incubated for 24 h with various concentrations of rac-19g, then assayed for cellular proliferation following the manufacturer’s protocol. Briefly, supernatants were gently removed and the plate was snap frozen and stored at −70 °C. Then plate was thawed, cells were lysed and incubated with CyQUANT dye. The excess of the dye was removed and fluorescence was measured at 490/520 nm (excitation/emission) using a FlexStation 3 (Molecular Devices) multimodal microplate reader.

[9] = A2780, MTT dose-response fit, treated daily for 3 days, SI figures

| Compound | EC20 (logistic fit) [1] | EC80 (logistic fit) [1] | EC20 (logistic fit) ([2]; HaCaT) | EC80 (logistic fit) ([2]; HaCaT) | EC20 (logistic fit) [3, 9] | antiproliferative activity at 50 μM concentration [1] | antiproliferative activity at 50 μM concentration [3] | other results |
| --- | --- | --- | --- | --- | --- | --- | --- | --- |
| COc1cccc2c1C(=O)c1c(O)c3c(c(O)c1C2=O)C[C@@](O)(C(=O)CO)C[C@@H]3O[C@H]1C[C@H](N)[C@H](O)[C@H](C)O1 [Doxorubicin, reference compound] |  |  |  |  |  |  |  | IC50 ([1]; Homo sapiens, WM35, 72 h): 0.14 µM; IC50 ([2]; Homo sapiens, HaCaT, 72 h): 0.03 µM; IC50 ([3]; Homo sapiens, A2780, 72 h): 0.07 µM |
| CCOC(=O)c1c(C)[nH]c2c1-c1ccccc1OC2c1ccc(OC)cc1 (racemic) [rac-4b, (±)-ethyl 2-methyl-4-(4-methoxyphenyl)-3,4-dihydrochromeno[3,4-b]pyrrole-1-carboxylate] | 1,2746 µM | 26,63177 µM | 2.492 | 36.73 | 1,99005 mM |  |  | IC50 [1]: 5.83 ± 1.78 µM; IC50 [2]: 9.57 ± 8.77 µM; IC50 [3]: 4.84 ± 1.38 µM |
| COc1ccc([C@@H]2Oc3ccccc3[C@@H]3OCCN[C@@H]23)cc1.Cl (racemic) [rac-(4aS*,5R*,10bR*)-2b, (±)-(4aR*,5S*,10bS*)-5-(4-methoxyphenyl)-2,3,4,4a,5,10b-hexahydrochromeno[4,3-b][1,4]oxazine hydrochloride] | 26,114 µM | 43,39258 µM | 7.569 | 38.76 | 6,72446 mM | the most active | the most active | IC50 [2]: 17.1 ± 7.95 µM; IC50 [3]: 10.4 ± 2.71 µM |
| Cc1nc2c(s1)-c1ccccc1OC2c1ccccc1 (racemic) [rac-3a, (±)-2-methyl-4-phenyl-4H-chromeno[3,4-d][1,3]thiazole] |  |  |  |  |  | much weaker activities | much weaker activities |  |
| CCOC(=O)c1c(C)[nH]c2c1-c1ccccc1OC2c1ccc(OC)c(OC)c1 (racemic) [rac-4c, (±)-ethyl 2-methyl-4-(3,4-dimethoxyphenyl)-3,4-dihydrochromeno[3,4-b]pyrrole-1-carboxylate] | 1,55024 µM | 43,44318 µM | 0.9397 | 4.167 | 2,14809 mM |  |  | IC50 [1]: 8.21 ± 4.38 µM; IC50 [2]: 1.97 ± 0.29 µM; IC50 [3]: 5.34 ± 0.88 µM |
| COc1ccc(C2Oc3ccccc3-c3sc(C)nc32)cc1 (racemic) [rac-3b, (±)-2-methyl-4-(4-methoxyphenyl)-4H-chromeno[3,4-d][1,3]thiazole] |  |  |  |  |  | much weaker activities | much weaker activities |  |
| COc1cc(C2Oc3ccccc3-c3sc(C)nc32)cc(OC)c1OC (racemic) [rac-3e, (±)-2-methyl-4-(3,4,5-trimethoxyphenyl)-4H-chromeno[3,4-d][1,3]thiazole] | 0,11527 µM | 39,68998 µM | 3.395 | 11.45 | 1,58958 mM |  |  | IC50 ([1]; Homo sapiens, WM35, 72 h): 2.14 ± 1.85 µM; IC50 ([2]; Homo sapiens, HaCaT, 72 h): 6.23 ± 1.25 µM; melting point: 113 to 115 °C; IC50 ([3]; Homo sapiens, A2780, 72 h): 2.74 µM; IC50 [3]: 2.72 ± 0.48 µM |
| COc1ccc(C2Oc3ccccc3-c3sc(C)nc32)cc1OC (racemic) [rac-3c, (±)-2-methyl-4-(3,4-dimethoxyphenyl)-4H-chromeno[3,4-d][1,3]thiazole] |  |  |  |  |  | much weaker activities | much weaker activities |  |
| CCCCCCCCCCCCCCCC(O)C(CO)NC(=O)CBr (stereo not shown) [SABRAC] |  |  |  |  |  |  |  | EC50 [4]: ~3 µM; growth of chemoresistant forms of prostate cancer [5]: inhibit the growth |
| CCCCCCCCCCCCCCCC(O)C(CO)NC(=O)CCl (stereo not shown) [SACLAC] |  |  |  |  |  |  |  | EC50 [4]: ~3 µM; growth of chemoresistant forms of prostate cancer [5]: inhibit the growth |
| CCOC(=O)c1c(C)[nH]c2c1-c1ccccc1OC2c1ccc2ccccc2c1 (racemic) [rac-4g, (±)-ethyl 2-methyl-4-(naphthalen-2-yl)-3,4-dihydrochromeno[3,4-b]pyrrole-1-carboxylate] |  |  |  |  |  |  |  | melting point: 149 to 151 °C |
| COc1cc(OC)cc([C@@H]2Oc3ccccc3[C@H]3OCCN[C@H]32)c1 (racemic) [rac-(4aS*,5R*,10bS*)-2d, (±)-(4aR*,5S*,10bR*)-5-(3,5-dimethoxyphenyl)-2,3,4,4a,5,10b-hexahydrochromeno[4,3-b][1,4]oxazine] | 14,15843 µM | 53,361 µM | 11.28 | 81.84 | 10,79361 mM | the most active | the most active | IC50 [2]: 30.4 ± 49.8 µM |
| O=C(CCl)N[C@@H]1[C@@H](O)c2ccccc2O[C@H]1c1ccc2ccccc2c1 (racemic) [rac-19g, (±)-2-chloro-N-[(2R*,3S*,4R*)-4-Hydroxy-2-(naphthalen-2-yl)-3,4-dihydro-2H-chromen-3-yl]acetamide] | 1,26314 µM | 9,68285 µM |  |  | 0,01488 mM |  |  | IC50 ([1]; Homo sapiens, WM35, 72 h): 3.5 ± 1.94 µM; IC50 ([2]; Homo sapiens, HaCaT, 72 h): 6.06 ± 3.3 µM; integrity of the plasma membrane (SYTOX Green staining) [6]: intact (negative SYTOX Green staining); mitochondrial membrane potential [DilC1(5) staining] [7]: decreased the mitochondrial membrane potential; EC50 ([3]; Homo sapiens, 72 h, A2780, MTT dose-response fit, treated daily for 3 days, SI figures, read-out: EC50 (x0 of logistic fit) (converted)): 0.151 µM; IC50 ([3]; Homo sapiens, A2780, 72 h): 0.15 ± 0.14 µM; proliferation-associated DNA synthesis (CyQUANT Assay) [8]: inhibited proliferation-associated DNA synthesis |
| Cc1nc2c(s1)-c1ccccc1OC2c1ccc2ccccc2c1 (racemic) [rac-3g, (±)-2-methyl-4-(naphthalen-2-yl)-4H-chromeno[3,4-d][1,3]thiazole] |  |  |  |  |  | much weaker activities | much weaker activities | melting point: 129 to 130 °C |
